Literature values as cited in PMC3378994 (Bioorganic & medicinal chemistry letters, 2012).

Target: DAT (Rattus norvegicus, UniProt P23977)
Sequence (P23977 whole entry): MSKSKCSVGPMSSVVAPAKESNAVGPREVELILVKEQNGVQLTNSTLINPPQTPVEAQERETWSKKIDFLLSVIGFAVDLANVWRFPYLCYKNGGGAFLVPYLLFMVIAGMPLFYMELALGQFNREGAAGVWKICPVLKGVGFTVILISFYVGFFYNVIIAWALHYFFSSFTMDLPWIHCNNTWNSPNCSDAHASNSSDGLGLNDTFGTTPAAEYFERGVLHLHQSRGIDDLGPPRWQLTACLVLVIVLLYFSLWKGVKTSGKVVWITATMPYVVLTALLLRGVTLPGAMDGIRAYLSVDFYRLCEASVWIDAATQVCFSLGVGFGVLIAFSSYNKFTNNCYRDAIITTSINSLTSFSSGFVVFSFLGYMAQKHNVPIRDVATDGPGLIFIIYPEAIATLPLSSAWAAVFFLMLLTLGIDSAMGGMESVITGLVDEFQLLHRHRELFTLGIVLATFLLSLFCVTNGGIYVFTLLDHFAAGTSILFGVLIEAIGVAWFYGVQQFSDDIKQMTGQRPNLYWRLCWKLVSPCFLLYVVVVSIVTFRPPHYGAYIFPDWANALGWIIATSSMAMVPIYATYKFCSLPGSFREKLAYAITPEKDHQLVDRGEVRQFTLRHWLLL

## Cc1ccc([C@H]2C[C@@H]3CC[C@H]([C@H]2C(=O)OCC[18F])N3C/C=C/I)cc1 [[^18F]FE-PE2I]
  Fold lower affinity to other monoamine transporters than to DAT: more than 50 fold
